# Assay results reported in patent US20250177410A1, “COMBINATION THERAPIES COMPRISING A SOS1 INHIBITOR AND AN EGFR INHIBITOR” (Mirati Therapeutics, Inc., priority 2022, published 2025).
# Where two headings read alike, the source gives them in different places.
# Experiments:
# [1] = test system: NCI-H1975 cells harboring EGFR L585R/T790M mutations
# Method: (§1) Immunocompromised nude/nude mice are inoculated in the right hind flank with NCI-H1975 cells harboring EGFR L585R/T790M mutations. When tumor volumes reach between 200-400 mm^3 in size, the mice are divided into four groups of 4-12 mice each. The first group is administered vehicle only. […] The fourth and fifth groups are administered the single agent dose of the EGFR inhibitor in combination with the single agent dose of the SOS1 inhibitor. The treatment period was 21 days. Tumor volumes are measured using a caliper every two-three days and tumor volumes are calculated by the formula: 0.5×(Length×Width)2.
# 30 nude/nude mice were inoculated in the right hind limb with 5×10^6 NCI-H1975 cells.
# [2] = test system: PC9 cells harboring EGFR exon 19del (E746_A750del) mutation
# Method: as §1, with “NOD/SCID” for “nude/nude”, “PC9” for “NCI-H1975”, “exon 19del (E746_A750del) mutation.” for “L585R/T790M mutations.”, “100-150” for “200-400”, “27” for “21”, “0.5×(Length×Width) 2.” for “0.5×(Length×Width)2.”
# 30 NOD/SCID mice were inoculated in the right hind limb with 5×10^6 PC9 cells.
# [3] = Study Day 3, Osimertinib 2.5 mg/kg QD p.o.
# [4] = Study Day 10, Osimertinib 5 mg/kg QD p.o.
# [5] = Study Day 21, Osimertinib 5 mg/kg QD p.o.
# [6] = Study Day 3, MRTX0902 50 mg/kg p.o.
# [7] = Study Day 10, MRTX0902 50 mg/kg p.o.
# [8] = Study Day 14, MRTX0902 50 mg/kg p.o.
# [9] = Study Day 21, MRTX0902 50 mg/kg p.o.
smiles,measurement,setting,value
"C=CC(=O)Nc1cc(Nc2nccc(-c3cn(C)c4ccccc34)n2)c(OC)cc1N(C)CCN(C)C [Osimertinib, osimertinib]",Average Tumor Volume,"[1]; Study Day 0, Osimertinib 2.5 mg/kg QD p.o.",286 mm^3
same,Average Tumor Volume,"[1]; Study Day 0, Osimertinib 5 mg/kg QD p.o.",286 mm^3
same,Average Tumor Volume,[1]; [3],288 mm^3
same,Average Tumor Volume,"[1]; Study Day 3, Osimertinib 5 mg/kg QD p.o.",173 mm^3
same,Average Tumor Volume,"[1]; Study Day 7, Osimertinib 2.5 mg/kg QD p.o.",325 mm^3
same,Average Tumor Volume,[1]; [4],70 mm^3
same,Average Tumor Volume,"[1]; Study Day 17, Osimertinib 2.5 mg/kg QD p.o.",468 mm^3
same,Average Tumor Volume,"[1]; Study Day 17, Osimertinib 5 mg/kg QD p.o.",83 mm^3
same,Average Tumor Volume,[1]; [5],135 mm^3
same,tumor growth,"[1]; mouse, in vivo",89%
same,tumor regression,"[1]; osimertinib 5 mg/kg single agent, day 17",−71%
same,Average Tumor Volume,[2]; [3],124 mm^3
same,Average Tumor Volume,"[2]; Study Day 6, Osimertinib 5 mg/kg QD p.o.",95 mm^3
same,Average Tumor Volume,[2]; [4],69 mm^3
same,Average Tumor Volume,"[2]; Study Day 14, Osimertinib 5 mg/kg QD p.o.",65 mm^3
same,Average Tumor Volume,"[2]; Study Day 18, Osimertinib 2.5 mg/kg QD p.o.",150 mm^3
same,Average Tumor Volume,"[2]; Study Day 18, Osimertinib 5 mg/kg QD p.o.",60 mm^3
same,Average Tumor Volume,[2]; [5],62 mm^3
same,Average Tumor Volume,"[2]; Study Day 24, Osimertinib 2.5 mg/kg QD p.o.",209 mm^3
same,Average Tumor Volume,"[2]; Study Day 27, Osimertinib 2.5 mg/kg QD p.o.",214 mm^3
same,Average Tumor Volume,"[2]; Study Day −1, Osimertinib 2.5 mg/kg QD p.o.",108 mm^3
same,tumor growth,"[2]; mouse, in vivo",92.8%
same,tumor regression,"[2]; osimertinib 5 mg/kg single agent, day 27",−32.5%
"Cc1c(C#N)cccc1[C@@H](C)Nc1nnc(C)c2cnc(N3CCOCC3)cc12 [MRTX0902, (R)-2-methyl-3-(1-((4-methyl-7-morpholinopyrido[3,4-d]pyridazin-1-yl)amino)ethyl)benzonitrile]",tumor growth inhibition,[1]; MRTX0902 50 mg/kg BID single agent,26%
same,Average Tumor Volume,"[1]; Study Day 0, MRTX0902 50 mg/kg p.o.",285 mm^3
same,Average Tumor Volume,[1]; [6],504 mm^3
same,Average Tumor Volume,"[1]; Study Day 7, MRTX0902 50 mg/kg p.o.",808 mm^3
same,Average Tumor Volume,[1]; [7],1028 mm^3
same,Average Tumor Volume,[1]; [8],1387 mm^3
same,Average Tumor Volume,"[1]; Study Day 17, MRTX0902 50 mg/kg p.o.",1527 mm^3
same,Average Tumor Volume,[1]; [9],1372 mm^3
same,tumor growth inhibition,[2]; MRTX0902 50 mg/kg BID,54%
same,Average Tumor Volume,[2]; [6],197 mm^3
same,Average Tumor Volume,"[2]; Study Day 6, MRTX0902 50 mg/kg p.o.",247 mm^3
same,Average Tumor Volume,[2]; [7],330 mm^3
same,Average Tumor Volume,[2]; [8],442 mm^3
same,Average Tumor Volume,"[2]; Study Day 18, MRTX0902 50 mg/kg p.o.",578 mm^3
same,Average Tumor Volume,[2]; [9],661 mm^3
same,Average Tumor Volume,"[2]; Study Day 24, MRTX0902 50 mg/kg p.o.",755 mm^3
same,Average Tumor Volume,"[2]; Study Day 27, MRTX0902 50 mg/kg p.o.",798 mm^3
same,Average Tumor Volume,"[2]; Study Day −1, MRTX0902 50 mg/kg p.o.",112 mm^3
